Type in all cases: cell-based
In test [1] the target is T1, BaF3_ASV (EGFR_A776inASV) (Homo sapiens, UniProt P00533, DUP767-769).
T1 construct: expressed in transfected cells; host or cells: Ba/F3 (engineered)
As to the kind of experiment: EGFR degradation assay (western blot), BaF3_ASV cells. The conditions noted are these: BaF3_ASV cells, compounds 24 h, western blot; read-out: BaF3_ASV DC50. An outline of the steps: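 Cells seeded overnight, then exposed to compounds for 24 h; lysates run on western blot, EGFR probed with tubulin loading control and fluorescent secondary detection. DC50 = concentration giving 50% EGFR degradation.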
In general terms: In western blotting, separated proteins are transferred to a membrane and probed.

For the next test, the system named is A431. As to the kind of experiment: Cell growth inhibition assay (CellTiter-Glo), A431. The conditions noted are these: Homo sapiens, A-431, 72 h, A431 cells, three days, read-out: A431 GI50. An outline of the steps:
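Cells were plated in 96-well plates (Corning 3610) at 90 μL of culture medium per well and incubated overnight at 37° C. The next day, a 1,000× DMSO compound stock was diluted 1:100 in cell culture medium, and 10 μL was added per well. After shaking for 10 min, luminescence was read on an Envision (PerkinElmer) reader.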
(ATP-based viability assays read luminescence as a measure of living cells.)

A further test relates to HCC827_LTC. As to the kind of experiment: Cell growth inhibition assay (CellTiter-Glo), HCC827_LTC. Particulars: 72 h; Table 8; HCC827 expressing human EGFR L858R/T790M/C797S, endogenous EGFR knockout, three days. As to the method:
(§1) HCC827_LTC and HCC827_DTC cell lines were generated by first transducing HCC827 cells (ATCC) with lentiviral particles expressing codon-optimized human EGFR L858R/T790M/C797S (LTC) mutant or Del19/T790M/C797S (DTC) mutant, and then selecting under 5 μg/ml puromycin treatment for a week. The endogenous EGFR alleles were subsequently abolished using the Alt-R™ CRISPR-Cas9 technology (Integrated DNA Technologies). Single clones of HCC827_LTC and HCC827_DTC were selected and validated for endogenous EGFR knockout using Sanger sequencing.
(§2) Cells were seeded in a 96-well plate (Corning 3610) with 90 μL of culture medium per well, and plates were incubated at 37° C. overnight. A 1,000× DMSO stock solution of the desired compound was prepared the following day. A compound dilution plate was prepared by diluting the stock solution 1:100 in the corresponding cell culture medium, 10 μL of the diluted compound solution was added to each 96-well plate well containing the seeded cells. Then, the cells were cultured at 37° C. for three days following compound treatment, 100 μL of CellTiter-Glo reagents (Promega G7573) was added to each well of the 96-well plate. The content of the wells was mixed by shaking continuously for 10 min, and luminescence was measured using Envision (PerkinElmer). The data were analyzed with GraphPad Prism 9 (see FIG. 50).
(§3) Table 6, Table 7, and Table 8 list the cell growth inhibition results, where Gls0 represents the compound concentration to cause 50% cell growth inhibition in comparison with DMSO.

For the next test, the system named is NCI-H2073. The test is described as follows: Cell growth inhibition assay (CellTiter-Glo), NCI-H2073. Particulars: 72 h; Table 8; NCI-H2073 cells, three days. As to the method: as §2, with “Then, the cells were cultured at 37° C. for three days following compound treatment, 100 μL of CellTiter-Glo reagents (Promega G7573) was added to each well of the 96-well plate.” left out
as §3

A further test relates to HCC827_DTC. The test is described as follows: Cell growth inhibition assay (CellTiter-Glo), HCC827_DTC. Particulars: 72 h; Table 8; HCC827 expressing human EGFR Del19/T790M/C797S, endogenous EGFR knockout, three days. As to the method:
as §1, §2, §3

A further test deals with BaF3_DTC. As to the kind of experiment: Cell growth inhibition assay (CellTiter-Glo), BaF3_DTC. The conditions noted are these: 72 h; Table 6; BaF3_DTC cells, three days, CellTiter-Glo; read-out: BaF3_DTC GI50.
A further test deals with HCC827. The test is described as follows: Cell growth inhibition assay (CellTiter-Glo), HCC827. The conditions noted are these: Homo sapiens, 72 h, Table 8, HCC827 cells, three days. Here is the method: as §1, §2, §3
Another test relates to BaF3_ASV. The test is described as follows: Cell growth inhibition assay (CellTiter-Glo), BaF3_ASV. The conditions noted are these: 72 h; Table 6; BaF3_ASV cells, three days, CellTiter-Glo; read-out: BaF3_ASV GI50.

Like-named read-outs stand apart in the source and are kept apart here.

For orientation: DC50 means the concentration at which degradation of the target reaches its halfway point. As a reminder, the GI50 is the concentration giving 50% growth inhibition.

T1 sequence (P00533 with tags, fused parts or gaps DUP767-769): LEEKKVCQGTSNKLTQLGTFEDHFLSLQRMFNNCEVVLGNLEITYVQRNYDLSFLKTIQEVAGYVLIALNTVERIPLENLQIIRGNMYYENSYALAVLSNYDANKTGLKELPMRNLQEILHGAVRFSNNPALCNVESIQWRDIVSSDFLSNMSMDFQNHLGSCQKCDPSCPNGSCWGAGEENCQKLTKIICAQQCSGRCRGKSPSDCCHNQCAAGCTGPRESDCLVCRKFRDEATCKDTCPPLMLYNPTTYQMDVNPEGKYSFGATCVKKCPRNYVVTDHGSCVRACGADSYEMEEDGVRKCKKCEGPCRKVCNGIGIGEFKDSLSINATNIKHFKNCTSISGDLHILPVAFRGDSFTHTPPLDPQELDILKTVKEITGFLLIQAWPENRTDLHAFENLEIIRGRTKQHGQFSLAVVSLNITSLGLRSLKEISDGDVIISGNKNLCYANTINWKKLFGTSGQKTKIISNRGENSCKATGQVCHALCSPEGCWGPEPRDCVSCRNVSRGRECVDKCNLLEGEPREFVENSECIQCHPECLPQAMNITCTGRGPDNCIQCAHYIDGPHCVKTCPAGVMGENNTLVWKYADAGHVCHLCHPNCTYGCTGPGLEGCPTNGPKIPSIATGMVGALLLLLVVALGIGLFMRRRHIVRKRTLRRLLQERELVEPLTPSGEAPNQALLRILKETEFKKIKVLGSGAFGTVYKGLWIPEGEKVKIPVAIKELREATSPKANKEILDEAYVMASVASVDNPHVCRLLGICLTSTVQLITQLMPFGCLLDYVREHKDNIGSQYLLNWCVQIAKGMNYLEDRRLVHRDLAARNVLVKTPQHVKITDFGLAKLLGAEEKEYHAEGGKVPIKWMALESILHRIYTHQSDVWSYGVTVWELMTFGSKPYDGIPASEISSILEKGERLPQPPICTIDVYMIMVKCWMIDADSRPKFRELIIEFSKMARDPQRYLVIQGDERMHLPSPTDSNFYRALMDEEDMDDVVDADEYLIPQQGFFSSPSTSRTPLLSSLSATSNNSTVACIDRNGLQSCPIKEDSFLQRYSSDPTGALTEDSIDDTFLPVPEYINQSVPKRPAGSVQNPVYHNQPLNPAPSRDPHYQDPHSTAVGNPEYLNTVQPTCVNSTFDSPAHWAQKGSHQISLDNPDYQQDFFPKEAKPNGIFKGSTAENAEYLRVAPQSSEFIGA

`CCn1c(=O)n(C2CCC(=O)NC2=O)c2cccc(CCN3CCN(C4CCN(c5cc(OC)c(Nc6ncc(Br)c(Nc7ccc8nccnc8c7NS(C)(=O)=O)n6)cc5-c5cnn(C)c5)CC4)CC3)c21` (stereo not drawn) [Compound 28, N-(6-((5-bromo-2-((4-(4-(4-(2-(1-(2,6-dioxopiperidin-3-yl)-3-ethyl-2-oxo-2,3-dihydro-1H-benzo[d]imidazol-4-yl)ethyl)piperazin-1-yl)piperidin-1-yl)-2-methoxy-5-(1-methyl-1H-pyrazol-4-yl)phenyl)amino)pyrimidin-4-yl)amino)quinoxalin-5-yl)methanesulfonamide]: the DC50 in test [1] came out at 93.6 nM. Besides, the GI50 in the test with A431 (Table 6, CellTiter-Glo) came to 271 nM; in the test on A431 (Table 8) it was 150 nM; with HCC827_LTC it was 1.03 nM; in the test on NCI-H2073 it was 340 nM; in the test with HCC827_DTC it was 4.42 nM; with BaF3_DTC, 15.8 nM. The concentration for 50% growth inhibition (GI50) turned out to be 0.52 nM in the test with HCC827 and 56.3 nM with BaF3_ASV.

The values are drawn from patent US20250002473A1, “QUINOXALINE DERIVED SULFONAMIDES WITH EGFR DEGRADATION ACTIVITIES AND THEIR USES THEREOF” (Accutar Biotechnology Inc., priority 2023, published 2025).
